The text below walks through data of patent US20190364943A1, “NOVEL COMPOSITIONS FOR FLAVOR ENHANCEMENT” (International Flavors & Fragrances Inc., priority 2016, published 2019).

For data set [1], the system named is salty taste. The data set is described as follows: Effect on salty taste, intensity scale 0 to 10 (panelists). The class given is in vivo, human. The following applies: 20 ppm in sodium chloride in water (0.3% by weight); scale 0 to 10, control anchored as 5. How it is done:
(§1) The effect of guanine and its nucleobase analog adenine on other basic tastes was examined and compared. The control solutions were prepared as follows:
(iii) A salty control solution of sodium chloride in water (0.3% by weight); and
(§2) Respective test solutions of adenine and guanine were prepared in different control solutions (2 or 20 ppm).
(§3) The taste perception of each sample was evaluated by a group of panelists using an intensity scale of 0 to 10, where 0=none, 5=moderate, 10=extremely strong. Panelists were instructed to anchor the intensity of the control solutions as 5 on the scale. The intensity scores were analyzed using one-way ANOVA with Post Hoc LSD multiple comparisons. Average intensity scores are reported in the following:
(§4) The effect of guanosine and its corresponding nucleotide, guanosine 5′-monophosphate (GMP), on additional basic tastes was examined and compared. The control solutions of sweet, bitter, salty and umami tastes were prepared as above in Example II. Respective test solutions of guanosine and GMP were prepared in different control solutions (2 or 20 ppm).

Data set [2] relates to bitter taste. The data set is described as follows: Effect on bitter taste, intensity scale 0 to 10 (panelists). Type of data set: in vivo, human. To be noted: 2 ppm in caffeine in water (0.05% by weight); scale 0 to 10, control anchored as 5. As to the method:
as §1
(ii) A bitter control solution of caffeine in water (0.05% by weight);
as §2, §3, §4

Data set [3] concerns sweet taste. The data set is described as follows: Effect on sweet taste, intensity scale 0 to 10 (panelists). Type of data set: in vivo, human. The following applies: 20 ppm in sucrose in water (2.5% by weight); scale 0 to 10, control anchored as 5. As to the method: as §1
(i) A sweet control solution of sucrose in water (2.5% by weight);
as §2, §3, §4

For data set [4], the system named is sour taste. The data set is described as follows: Sour taste intensity score in citric acid base solution, scale 0 to 10 (panelists). Type of data set: in vivo, human. The following applies: scale 0 to 10, base anchored as 5. As to the method: The effect of adenine and guanine on sour taste was examined and compared. Respective test sample solutions of adenine and guanine were prepared in the base solution (each of 5 and 100 ppb, respectively).
The sour taste perception of each sample was evaluated by a group of panelists using an intensity scale of 0 to 10, where 0=none, 5=moderate, 10=extremely strong. Panelists were instructed to anchor the intensity of the base solution as 5 on the scale. The intensity scores were analyzed using one-way ANOVA with Post Hoc LSD multiple comparisons. Average intensity scores are reported in the following: […]

In data set [5] the test system is umami taste. The data set is described as follows: Effect on umami taste, intensity scale 0 to 10 (panelists). Type of data set: in vivo, human. The following applies: 20 ppm in MSG in water (0.05% by weight); scale 0 to 10, control anchored as 5. How it is done:
as §1
(iv) An umami control solution of monosodium glutamate (MSG) in water (0.05% by weight).
as §2, §3, §4

Data set [6] relates to sour taste. The experiment in a line: Paired comparison of sour taste, test sample solution vs citric acid base solution (sensory panel). The class given is in vivo, human. To be noted: for Sour taste enhancement, in words (table footnote): 5 and 100 ppb in base solution (citric acid 400 ppm); for Result (sour taste vs base solution): paired comparison. As to the method: The enhancement of sour taste by guanine and guanosine was subsequently examined. A base solution of citric acid (HOC(COOH)(CH2COOH)2) in water (400 ppm) was prepared and used in the following examples of the present invention. Test sample solutions of guanine and guanosine were prepared in the base solution (each of 5 and 100 ppb, respectively).
Sample pairs (a base solution and a test sample solution) were presented in a blind and pseudorandom order to a sensory panel. The enhancement of sour taste was recorded based on the percentage of the panelists who ranked the sample sourer. Binomial statistical analysis was used to compare the enhancement of sour taste for each sample pair. Significance was at 95% Confidence Interval (p<0.05). The test results are as follows:
The effect of botanical extract such as Chrysanthemum parthenium extract on sour taste was examined. A test sample solution of the extract in the base solution (15 ppm) was prepared.
Sensory evaluation was conducted using the paired comparison method. A base solution and a test sample solution, unidentifiable by using 3-digit codes, were presented in a blind and pseudorandom order to a sensory panel. The enhancement of sour taste was recorded based on the percentage of the panelists who ranked the sample sourer. The data were analyzed using binomial statistical analysis.

Data set [7] is described as follows: Taste description of the compound alone in water. Type of data set: in vivo, human. The following applies: 1 ppm.
Data set [8] deals with sour taste. The experiment in a line: Paired comparison of sour taste, GMP solution vs guanosine solution (sensory panel). The class given is in vivo, human. How it is done: The effect of guanosine and GMP on sour taste was examined and compared. Respective test sample solutions of GMP and guanosine were prepared in the base solution (each of 5 and 100 ppb, respectively).
Sample pairs (a GMP solution and a guanosine solution) were presented in a blind and pseudorandom order to a sensory panel. The enhancement of sour taste was recorded based on the percentage of the panelists who ranked the sample sourer. Binomial statistical analysis was used to compare the enhancement of sour taste for each sample pair. Significance was at 95% Confidence Interval (p<0.05).

The nature of data set [9]: pH level of sample solutions. The class given is physicochemical.
The subject of data set [10] is sour taste. The experiment in a line: Paired comparison of sour taste against control solution of citric acid 450 ppm (sensory panel). Type of data set: in vivo, human. As to the method: A control sample solution of citric acid in water (450 ppm) and a test sample solution of guanosine in the base solution (1.25 ppm) were prepared. Sample pairs of (i) a base solution and a control sample solution; and (ii) a test sample solution and a control sample solution were each presented in a blind and pseudorandom order to a sensory panel. The enhancement of sour taste was recorded based on the percentage of the panelists who ranked the sample sourer.

The mark [11] stands for this setting: 5 ppb in base solution (citric acid 400 ppm).
The mark [12] stands for this setting: 100 ppb in base solution (citric acid 400 ppm).
The mark [13] stands for this setting: 5 ppb in base solution (citric acid in water, 400 ppm).
[14] abbreviates: 100 ppb in base solution (citric acid in water, 400 ppm).
The mark [15] stands for this setting: guanosine 1.25 ppm in base solution (citric acid 400 ppm).

As to `Nc1ncnc2nc[nH]c12` [Adenine, adenine, reference compound], the “Salty, average intensity score” value in data set [1] was 5.16. Besides, in data set [2], the “Bitter, average intensity score” value came out at 6.33. Further, the “Sweet, average intensity score” value in data set [3] is recorded as 5.76. Besides, the “Intensity Score (sour taste)” value was found to be 5.14 in data set [4] (setting [11]) and 5.73 in [4] (setting [12]). Further, the “Umami, average intensity score” value in data set [5] was 5.02.

Regarding `Nc1nc2c(ncn2[C@@H]2O[C@H](COP(=O)(O)O)[C@@H](O)[C@H]2O)c(=O)[nH]1` [GMP, guanosine 5′-monophosphate, reference compound], in data set [1], the “Salty, average intensity score” value was determined as 5.34. Besides, the “Bitter, average intensity score” value in data set [2] turned out to be 6.50. Moreover, the “Sweet, average intensity score” value in data set [3] was found to be 5.42. The “Umami, average intensity score” value in [5] amounted to 9.60.

For `Nc1nc2nc[nH]c2c(=O)[nH]1` [Guanine, guanine], the “Salty, average intensity score” value in data set [1] came out at 5.06. The “Sour taste enhancement, in words (table footnote)” value in [6] is “*Guanine and guanosine provided intense and lasting sour taste enhancement”. The “Result (sour taste vs base solution)” value in data set [6] (setting [13]) and in [6] (setting [14]) was “Sourer than the base solution” in each case. Further, the “Bitter, average intensity score” value in data set [2] is listed as 6.50. Besides, the “Sweet, average intensity score” value in data set [3] was 4.80. Further, the “Sour taste of the compound itself” value in data set [7] is “Neither guanine nor guanosine possessed sour taste”. Further, the Taste description entry in data set [7] is “somewhat astringent, mouth-drying and mouth-coating”. Besides, the “Intensity Score (sour taste)” value in data set [4] (setting [11]) turned out to be 6.44; in data set [4] (setting [12]), 7.08. The “Umami, average intensity score” value in data set [5] was found to be 4.82.

With `Nc1nc2c(ncn2[C@@H]2O[C@H](CO)[C@@H](O)[C@H]2O)c(=O)[nH]1` [Guanosine, guanosine], the “Result (which solution of the pair tasted sourer)” value in data set [8] (5 ppb each in base solution (citric acid 400 ppm)) was “Guanosine solution tasted sourer”. In addition, in data set [8] (100 ppb each in base solution (citric acid 400 ppm)), the “Result (which solution of the pair tasted sourer)” value was “Guanosine solution tasted sourer”. The “pH Level” value in data set [9] (test solution: citric acid 400 ppm + guanosine 1.25 ppm (base alone pH 3.19)) came out at 3.20. In data set [1], the “Salty, average intensity score” value stood at 5.22. Also, in data set [6], the “Sour taste enhancement, in words (table footnote)” value was “*Guanine and guanosine provided intense and lasting sour taste enhancement”. The “Result (sour taste vs base solution)” value in [6] (setting [13]) is listed as “Sourer than the base solution”. Further, in data set [6] (setting [14]), the “Result (sour taste vs base solution)” value was “Sourer than the base solution”. For the same compound, in [10] (setting [15]), the “Sour taste enhancement and pH, in words” value is “enhanced sour taste without decreasing the pH level”; the “Sour taste enhancement compared with additional citric acid, in words” value is recorded as “greater than that was achieved by 50 ppm citric acid”. Further, in data set [10] (test (citric acid 400 ppm + guanosine 1.25 ppm) vs control (citric acid 450 ppm)), the “Panelist Selection (%), ranked sourer” value is listed as 100%. For the same compound, the “Bitter, average intensity score” value in data set [2] is 7.00. Also, the “Sweet, average intensity score” value in data set [3] turned out to be 5.52. Besides, in data set [7], the “Sour taste of the compound itself” value is on record as “Neither guanine nor guanosine possessed sour taste”; the Taste description entry was “somewhat astringent, mouth-drying and slightly bitter”. In data set [5], the “Umami, average intensity score” value stood at 4.98.

As for `O=C(O)CC(O)(CC(=O)O)C(=O)O` [citric acid, reference compound], in data set [9] (control solution: citric acid in water, 450 ppm), the “pH Level” value is reported as 3.17. Further, the “Panelist Selection (%), ranked sourer” value was found to be 100% in [10] (control (citric acid 450 ppm) vs base (citric acid 400 ppm)) and 0% in data set [10] (control (citric acid 450 ppm) vs test (citric acid 400 ppm + guanosine 1.25 ppm)).
